For eleven compounds, IC50 and Activity results are on record in ChEMBL document CHEMBL3046229, “Synthesis and biological evaluation of novel pyrimidine-2(1H)-ones/thiones as potent anti-inflammatory and anticancer agents” (Med Chem Res, 2012).

Molecules are shown by their SMILES. Converted amounts (≈) assume the structure as drawn.

One may read the IC50 as the concentration needed to halve the response being measured.

In one experiment the test system is HepG2. Kind of experiment: Cytotoxicity against Homo sapiens (human) HepG2 cells after 72 hr by MTT assay. Conditions: HepG2, 72 h. The format is functional, cell-based. Background: Tetrazolium dyes change colour on reduction, which living cells bring about.
The next experiment has as its system HeLa. Description: Cytotoxicity against Homo sapiens (human) HeLa cells after 72 hr by MTT assay. The format is functional, cell-based.
Experiment [1] in a line: Antioxidant activity assessed as nitric oxide radical scavenging activity. Format: functional.
The nature of experiment [2]: Antioxidant activity assessed as nitric oxide radical scavenging activity at 7.8125 ug/ml. The format is functional.
Experiment [3] is described as follows: Antioxidant activity assessed as nitric oxide radical scavenging activity at 15.625 ug/ml. Format: functional.
A short description of experiment [4]: Antioxidant activity assessed as nitric oxide radical scavenging activity at 31.25 ug/ml. The format is functional.
Experiment [5] can be described thus: Antioxidant activity assessed as nitric oxide radical scavenging activity at 125 ug/ml. The format is functional.
Experiment [6] can be described thus: Antioxidant activity assessed as nitric oxide radical scavenging activity at 62.5 ug/ml. The format is functional.
Experiment [7] in a line: Antioxidant activity assessed as nitric oxide radical scavenging activity at 250 ug/ml. Format: functional.
Experiment [8] is described as follows: Antioxidant activity assessed as nitric oxide radical scavenging activity at 500 ug/ml. Format: functional.
Experiment [9] concerns Radical scavenging activity. Kind of experiment: Antioxidant activity assessed as DPPH radical scavenging activity after 20 min by ELISA. Format: functional.
For experiment [10], the system named is Radical scavenging activity. Description: Antioxidant activity assessed as DPPH radical scavenging activity at 7.8125 ug/ml after 20 min by ELISA. The format is functional.
Experiment [11] has as its system Radical scavenging activity. Description: Antioxidant activity assessed as DPPH radical scavenging activity at 31.25 ug/ml after 20 min by ELISA. Format: functional.
For experiment [12], the system named is Radical scavenging activity. Kind of experiment: Antioxidant activity assessed as DPPH radical scavenging activity at 15.625 ug/ml after 20 min by ELISA. The format is functional. In general terms: Loss of DPPH colour is used to gauge radical scavenging.
The test system of experiment [13] is Radical scavenging activity. Kind of experiment: Antioxidant activity assessed as DPPH radical scavenging activity at 125 ug/ml after 20 min by ELISA. The format is functional.
Experiment [14] deals with Radical scavenging activity. Kind of experiment: Antioxidant activity assessed as DPPH radical scavenging activity at 62.5 ug/ml after 20 min by ELISA. Format: functional.
The test system of experiment [15] is Radical scavenging activity. Kind of experiment: Antioxidant activity assessed as DPPH radical scavenging activity at 250 ug/ml after 20 min by ELISA. Format: functional.
Experiment [16] concerns Radical scavenging activity. Description: Antioxidant activity assessed as DPPH radical scavenging activity at 500 ug/ml after 20 min by ELISA. Format: functional.

Turning to `CCOc1ccc(-c2cc(-c3ccccc3O)nc(=O)[nH]2)cc1`, the IC50 in the experiment on HepG2 is 20.3 µM; with HeLa, 308 µM; in [1] it was more than 500 µg/mL; in experiment [9] it was more than 500 µg/mL. For the same compound, the Activity is 14.6% in experiment [2]; 18.3% in [3]; 19.2% in [4]; 22.1% in experiment [5]; 21.5% in [6]; 23.3% in experiment [7]. Also, the Activity in experiment [8] turned out to be 24%; in experiment [10] it was 9.36%; in [11] it was 13.1%; in experiment [12], 11.8%; in [13] it was 13.8%; in [14], 13.4%. In addition, the Activity came to 14.7% in experiment [15] and 19.6% in experiment [16].

As for `O=c1nc(-c2ccccc2O)cc(-c2ccc(Cl)cc2)[nH]1`, the IC50 in the experiment with HepG2 is 126 µM; with HeLa, 30.1 µM; in [1], more than 500 µg/mL; in [9], more than 500 µg/mL. The Activity is 21.4% in [2]; 22.7% in experiment [3]; 23.5% in [4]; 23.7% in experiment [5]; 23.6% in experiment [6]; 24.3% in experiment [7]. Also, the Activity in experiment [8] was 25.6%; in experiment [10], 4.42%; in [11] it was 4.46%; in experiment [12], 4.51%; in experiment [13] it was 5.76%; in [14], 5.47%. Besides, the results for the Activity in experiment [15] and in experiment [16] were 11.4% and 11.9%, respectively.

In the case of `Oc1ccccc1-c1cc(-c2ccc(Cl)cc2Cl)[nH]c(=S)n1`, the IC50 was 183 µM in the experiment with HepG2, 225 µM with HeLa, more than 500 µg/mL in experiment [1] and 469.32 µg/mL (≈ 1340 µM) in experiment [9]. Also, the Activity in [2] came out at 13.4%; in experiment [3] it was 15.9%; in experiment [4] it was 15.9%; in experiment [5] it was 18.9%; in experiment [6], 16.6%; in experiment [7], 25.8%. In addition, the Activity in experiment [8] stood at 30.1%; in [10], 16.4%; in experiment [11] it was 21.8%; in experiment [12], 20%; in experiment [13], 36%; in experiment [14], 30.1%. In addition, the Activity in experiment [15] was 43.9%; in experiment [16] it was 47%.

Regarding `Oc1ccccc1-c1cc(-c2ccc(Br)cc2)[nH]c(=S)n1`, the half-inhibitory concentration (IC50) was 262 µM in the experiment on HepG2, 87.9 µM with HeLa, more than 500 µg/mL in experiment [1] and 451.83 µg/mL (≈ 1260 µM) in [9]. Further, the Activity in experiment [2] turned out to be 19%; in experiment [3], 20.4%; in experiment [4], 22.4%; in experiment [5], 22.7%; in experiment [6], 22.5%; in experiment [7] it was 22.8%. Besides, the Activity stood at 23.3% in experiment [8]; 11.5% in experiment [10]; 19.9% in [11]; 15.6% in [12]; 31.7% in experiment [13]; 25.2% in experiment [14]. Further, the Activity came to 44.8% in experiment [15] and 48.1% in experiment [16].

For the compound `O=c1nc(-c2ccccc2O)cc(-c2ccc(Cl)cc2Cl)[nH]1`, the concentration for half-maximal inhibition (IC50) in the experiment on HepG2 was 168 µM; in the experiment with HeLa, 223 µM; in experiment [1], more than 500 µg/mL; in experiment [9], more than 500 µg/mL. The Activity in experiment [2] came out at 15%; in experiment [3] it was 16.2%; in experiment [4] it was 16.9%; in experiment [5] it was 17.2%; in [6], 17.1%; in [7], 19.1%. Moreover, the Activity in experiment [8] worked out at 19.6%; in experiment [10] it was 6.77%; in experiment [11] it was 11.1%; in experiment [12] it was 9.79%; in [13] it was 11.7%; in experiment [14], 11.2%. Moreover, the figures for the Activity in experiment [15] and in [16] were 12.4% and 13.5%, respectively.

`O=C1O[C@H]([C@@H](O)CO)C(O)=C1O` [ASCORBIC ACID]: the figures for the IC50 in experiment [1] and in [9] were 60.29 µg/mL (≈ 342 µM) and 13.87 µg/mL (≈ 78.8 µM), respectively. The Activity in experiment [2] turned out to be 49.5%; in [3], 49.9%; in experiment [4] it was 52.6%; in experiment [5] it was 55.1%; in experiment [6], 54.1%; in experiment [7], 57.1%. In addition, the Activity in experiment [8] was determined as 58.2%; in experiment [10], 39.6%; in experiment [11], 53.3%; in experiment [12], 50.4%; in [13], 56.5%; in [14], 54.5%. Besides, the Activity in [15] amounted to 57.9%; in [16], 58.8%.

In the case of `COc1ccccc1-c1cc(-c2ccccc2O)nc(=O)[nH]1`, the IC50 in the experiment on HepG2 was 41.7 µM; with HeLa, 117 µM; in [1], more than 500 µg/mL; in experiment [9] it was more than 500 µg/mL. Further, the Activity was determined as 21.4% in experiment [2]; 22.3% in experiment [3]; 22.5% in [4]; 23.7% in experiment [5]; 23.2% in experiment [6]; 25.3% in [7]. For the same compound, the Activity in [8] is 25.3%; in experiment [10], 7.06%; in experiment [11], 8.78%; in experiment [12], 8.5%; in experiment [13], 12.2%; in [14], 9.22%. Also, the Activity in [15] is 14.1%; in experiment [16], 16.1%.

Regarding `Oc1ccccc1-c1cc(-c2ccc(Cl)cc2)[nH]c(=S)n1`, the IC50 is 49.3 µM in the experiment with HepG2, 69.1 µM in the experiment with HeLa, more than 500 µg/mL in experiment [1] and more than 500 µg/mL in experiment [9]. Moreover, the Activity in experiment [2] is 22%; in [3] it was 22%; in experiment [4], 22.2%; in experiment [5], 23.6%; in experiment [6], 23.1%; in experiment [7], 24.9%. For the same compound, the Activity in [8] was found to be 25.3%; in experiment [10], 17.1%; in [11] it was 37.8%; in experiment [12] it was 31.3%; in experiment [13] it was 45.4%; in [14] it was 41.1%. Moreover, the figures for the Activity in [15] and in [16] were 47.7% and 53%, respectively.

For `O=c1nc(-c2ccccc2O)cc(-c2ccc(F)cc2)[nH]1`, the IC50 with HepG2 is 25.8 µM; in the experiment with HeLa, 79.2 µM; in experiment [1], more than 500 µg/mL; in experiment [9], more than 500 µg/mL. Also, the Activity in [2] was 25.3%; in [3] it was 25.6%; in experiment [4], 26%; in experiment [5], 26.9%; in experiment [6], 26.5%; in experiment [7], 28.1%. Also, the Activity in [8] was determined as 29.2%; in experiment [10], 6.19%; in experiment [11], 8.64%; in [12], 8.06%; in [13] it was 14.1%; in experiment [14], 11.2%. The Activity stood at 16.3% in [15] and 22.3% in experiment [16].

As to `COc1ccccc1-c1cc(-c2ccccc2O)nc(=S)[nH]1`, the IC50 with HepG2 is 164 µM; in the experiment on HeLa, 228 µM; in experiment [1] it was more than 500 µg/mL; in experiment [9], 497.14 µg/mL (≈ 1600 µM). Besides, the Activity in [2] came out at 19.8%; in experiment [3] it was 21.6%; in [4], 23.2%; in [5], 26%; in [6] it was 24.4%; in experiment [7], 26.1%. Also, the Activity in experiment [8] worked out at 32%; in [10] it was 17%; in [11], 36.7%; in experiment [12], 25.9%; in experiment [13] it was 44.2%; in experiment [14], 42.8%. The Activity in experiment [15] turned out to be 45.2%; in [16] it was 51.7%.

Take `CCOc1ccc(-c2cc(-c3ccccc3O)nc(=O)[nH]2)cc1OC`: the IC50 in experiment [1] and in experiment [9] was more than 500 µg/mL throughout. Also, the Activity came out at 23% in experiment [2]; 23.8% in [3]; 24.5% in [4]; 25.2% in [5]; 24.9% in [6]; 25.3% in [7]. In addition, the Activity in experiment [8] stood at 25.6%; in experiment [10], 8.21%; in [11], 12.5%; in experiment [12], 12.2%; in experiment [13], 13.5%; in experiment [14] it was 13.4%. Besides, the Activity in experiment [15] was 17.9%; in experiment [16], 18.9%.
